The source of these data is ChEMBL document CHEMBL5096228, “Targeting Vancomycin-Resistant Enterococci (VRE) Infections and Van Operon-Mediated Drug Resistance Using Dimeric Cholic Acid-Peptide Conjugates” (J Med Chem, 2022).

Data set [1] relates to Staphylococcus aureus. Nature of the data set: Antimicrobial activity against Staphylococcus aureus ATCC 25923 assessed as growth inhibition after 14 to 16 hrs by CLSI based broth dilution method. It counts as functional. The settings on record: time 14-16 hrs.
The subject of data set [2] is Enterococcus faecium. Briefly: Antimicrobial activity against Enterococcus faecium assessed as growth inhibition after 14 to 16 hrs by CLSI based broth dilution method. It counts as functional. The settings on record: time 14-16 hrs.
Data set [3] has as its system Staphylococcus aureus. Briefly: Antimicrobial activity against methicillin-resistant Staphylococcus aureus ATCC 33591 assessed as growth inhibition after 14 to 16 hrs by CLSI based broth dilution method. Type of data set: functional. The settings on record: time 14-16 hrs.
For data set [4], the system named is Enterococcus faecium. Nature of the data set: Antimicrobial activity against Vancomycin-resistant Enterococcus faecium ATCC 51559 assessed as growth inhibition after 14 to 16 hrs by CLSI based broth dilution method. It counts as functional. As to conditions: time 14-16 hrs.
A short description of data set [5]: Cytotoxicity against mouse LLC cells assessed as reduction in cell viability. Type of data set: toxicity, cell-based. As to conditions: LLC (3LL) cells.
In data set [6] the test system is Mus musculus. Briefly: Antimicrobial activity against Vancomycin-resistant Enterococcus faecium ATCC 51559 induced wound in BALB/c mouse assessed as log reduction in colony forming unit at 40 mg/kg administered topically 3 times daily for 3 days. Type of data set: functional. As to conditions: route top, time 3 day.
The test system of data set [7] is Enterococcus faecium. Briefly: Resistance development in vancomycin-susceptible Enterococcus faecium assessed as vancomycin MIC99 at 2 ug/ml measured after 110 vancomycin passages. It counts as functional, organism-based. The settings on record: dose 2.0 µg/ml.
Data set [8] deals with Enterococcus faecium. Briefly: Development of drug resistance in vancomycin-resistant Enterococcus faecium ATCC 51559 assessed as increase in TN1546 expression measured after 7 days. It counts as functional. The settings on record: time 7 day.
Data set [9] deals with Enterococcus faecium. Nature of the data set: Bactericidal activity against Vancomycin-resistant Enterococcus faecium ATCC 51559 assessed as inhibition of bacterial growth at 4 to 16 ug/ml measured upto 24 hrs by time-kill assay. Type of data set: functional, organism-based. The settings on record: dose 4-16 µg/ml.
Data set [10] in a line: Hemolytic activity in human RBC at 50 ug/ml. It counts as toxicity, cell-based, Erythrocyte. As to conditions: red blood cells (erythrocytes), at 50 µg/mL, read-out: Activity.
For data set [11], the system named is Cell membrane. Briefly: Induction of membrane disruption in Vancomycin-resistant Enterococcus faecium ATCC 51559 at 4 to 16 ug/ml measured after 15 mins by DiSC2(5) dye based multimode plate reader assay. Type of data set: functional, subcellular. The settings on record: dose 4-16 µg/ml.
For data set [12], the system named is Enterococcus faecium. Briefly: Induction of reactive oxygen species generation in Enterococcus faecium ATCC 51559 incubated for 1 hr by DCFH-DA based fluorescent microscopy. Type of data set: functional, organism-based.
A short description of data set [13]: Induction of membrane-permeabilization in Enterococcus faecium ATCC 51559 at 4 ug/ml measured after 1 hr by PI staining based flow cytometry analysis. The settings on record: at 4 µg/mL.
The test system of data set [14] is Enterococcus faecium. Nature of the data set: Induction of membrane-permeabilization in Enterococcus faecium ATCC 51559 at 8 ug/ml measured after 1 hr by PI staining based flow cytometry analysis. Type of data set: functional. The settings on record: dose 8.0 µg/ml.
In data set [15] the test system is Enterococcus faecium. Briefly: Membrane permeabilization in Enterococcus faecium ATCC 51559 at 16 ug/ml measured after 1 hr by PI staining based flow cytometry analysis. As to conditions: dose 16 µg/ml. Type of data set: functional.
Data set [16] concerns Cell membrane. Briefly: Disruption of membrane in Enterococcus faecium ATCC 51559 at 4 to 16 ug/ml measured after 1 hr by SYTO9/PI staining based fluorometric analysis. As to conditions: dose 4-16 µg/ml. It counts as subcellular.
Data set [17] has as its system Cell membrane. Briefly: Disruption of membrane in Enterococcus faecium ATCC 51559 at 4 ug/ml by SYTO9/PI staining based fluorometric analysis. As to conditions: dose 4.0 µg/ml, time 1-6 hrs, TDE = time-dependent effect.
The subject of data set [18] is Enterococcus faecium. Nature of the data set: Antibiofilm activity against Vancomycin-resistant Enterococcus faecium ATCC 51559 assessed as log reduction in colony forming unit incubated for 12 hrs by SYTO9 and PI staining based fluorescence assay. It counts as functional, organism-based. The settings on record: dose 4-16 µg/ml, DDE = dose-dependent effect.
Data set [19] deals with Enterococcus faecium. Nature of the data set: Antibiofilm activity against Vancomycin-resistant Enterococcus faecium ATCC 51559 assessed as log reduction in colony forming unit at 16 ug/ml incubated for 12 hrs by SYTO9 and PI staining based fluorescence assay. As to conditions: dose 16 µg/ml. Type of data set: functional.
Data set [20] deals with Enterococcus faecium. Nature of the data set: Antibiofilm activity against Vancomycin-resistant Enterococcus faecium ATCC 51559 assessed as log reduction in colony forming unit at 32 ug/ml incubated for 12 hrs by SYTO9 and PI staining based fluorescence assay. It counts as functional. The settings on record: dose 32 µg/ml.
The subject of data set [21] is Enterococcus faecium. Briefly: Antibiofilm activity against Vancomycin-resistant Enterococcus faecium ATCC 51559 assessed as log reduction in colony forming unit at 16 ug/ml by SYTO9 and PI staining based fluorescence assay. It counts as functional, organism-based. The settings on record: dose 16.0 µg/ml, time 1-6 hrs, TDE = time-dependent effect.
The test system of data set [22] is Enterococcus faecium. Briefly: Antibiofilm activity against Vancomycin-resistant Enterococcus faecium ATCC 51559 assessed as log reduction in colony forming unit at 16 ug/ml incubated for 3 hrs by SYTO9 and PI staining based fluorescence assay. It counts as functional. The settings on record: dose 16 µg/ml.
For data set [23], the system named is Enterococcus faecium. Nature of the data set: Antimicrobial activity against vancomycin-susceptible Enterococcus faecium induced wound in BALB/c mouse assessed as log reduction in colony forming unit at 40 mg/kg administered topically 3 times daily for 3 days. It counts as functional, organism-based. As to conditions: route top, time 3.0 day.
For data set [24], the system named is Enterococcus faecium. Briefly: Resistance development in vancomycin-resistance Enterococcus faecium ATCC 51559 assessed as decrease CFU measured in presence of vancomycin. Type of data set: functional, organism-based.
Data set [25] has as its system Enterococcus faecium. Nature of the data set: Development of drug resistance in vancomycin-resistant Enterococcus faecium ATCC 51559 assessed as increase in TN1546 expression measured after 7 days in presence of vancomycin. It counts as functional, organism-based. As to conditions: time 7.0 day.
The test system of data set [26] is Enterococcus faecium. Nature of the data set: Inhibition of vancomycin-resistance in Enterococcus faecium ATCC 51559 assessed as increase in vanR expression at 2 ug/ml measured after 1 hr by qRT-PCR analysis. It counts as functional. As to conditions: dose 2.0 µg/ml.
For data set [27], the system named is Enterococcus faecium. Nature of the data set: Inhibition of vancomycin-resistance in Enterococcus faecium ATCC 51559 assessed as increase in vanS expression at 2 ug/ml measured after 1 hr by qRT-PCR analysis. Type of data set: functional. As to conditions: dose 2.0 µg/ml.
Data set [28] relates to Enterococcus faecium. Briefly: Inhibition of vancomycin-resistance in Enterococcus faecium ATCC 51559 assessed as increase in vanH expression at 2 ug/ml measured after 1 hr by qRT-PCR analysis. It counts as functional. As to conditions: dose 2.0 µg/ml.
Data set [29] relates to Enterococcus faecium. Briefly: Inhibition of vancomycin-resistance in Enterococcus faecium ATCC 51559 assessed as increase in vanA expression at 2 ug/ml measured after 1 hr by qRT-PCR analysis. It counts as functional. As to conditions: dose 2.0 µg/ml.
Data set [30] concerns Enterococcus faecium. Briefly: Inhibition of vancomycin-resistance in Enterococcus faecium ATCC 51559 assessed as increase in vanX expression at 2 ug/ml measured after 1 hr in presence of vancomycin by qRT-PCR analysis. As to conditions: dose 2.0 µg/ml. Type of data set: functional.
The test system of data set [31] is Enterococcus faecium. Nature of the data set: Inhibition of vancomycin-resistance in Enterococcus faecium ATCC 51559 assessed as increase in vanY expression at 2 ug/ml measured after 1 hr by qRT-PCR analysis. It counts as functional. As to conditions: dose 2.0 µg/ml.
The subject of data set [32] is Enterococcus faecium. Briefly: Inhibition of vancomycin-resistance in Enterococcus faecium ATCC 51559 assessed as increase in vanZ expression at 2 ug/ml measured after 1 hr by qRT-PCR analysis. The settings on record: dose 2.0 µg/ml. It counts as functional.
The subject of data set [33] is Enterococcus faecium. Nature of the data set: Inhibition of vancomycin-resistance in Enterococcus faecium ATCC 51559 assessed as reduction in vanR expression at 2 ug/ml measured after 1 hr in presence of vancomycin by qRT-PCR analysis. The settings on record: dose 2.0 µg/ml. It counts as functional.
Data set [34] deals with Enterococcus faecium. Nature of the data set: Inhibition of vancomycin-resistance in Enterococcus faecium ATCC 51559 assessed as reduction in vanS expression at 2 ug/ml measured after 1 hr in presence of vancomycin by qRT-PCR analysis. It counts as functional. The settings on record: dose 2.0 µg/ml.
For data set [35], the system named is Enterococcus faecium. Briefly: Inhibition of vancomycin-resistance in Enterococcus faecium ATCC 51559 assessed as reduction in vanH expression at 2 ug/ml incubated for 1 hr measured after 7 days in presence of vancomycin by qRT-PCR analysis. As to conditions: dose 2.0 µg/ml. It counts as functional.
Data set [36] relates to Enterococcus faecium. Briefly: Inhibition of vancomycin-resistance in Enterococcus faecium ATCC 51559 assessed as reduction in vanA expression at 2 ug/ml incubated for 1 hr measured after 7 days in presence of vancomycin by qRT-PCR analysis. It counts as functional. The settings on record: dose 2.0 µg/ml.
Data set [37] has as its system Enterococcus faecium. Briefly: Inhibition of vancomycin-resistance in Enterococcus faecium ATCC 51559 assessed as reduction in vanX expression at 2 ug/ml incubated for 1 hr measured after 7 days in presence of vancomycin by qRT-PCR analysis. As to conditions: dose 2.0 µg/ml. Type of data set: functional.
The test system of data set [38] is Enterococcus faecium. Briefly: Inhibition of vancomycin-resistance in Enterococcus faecium ATCC 51559 assessed as reduction in vanY expression at 2 ug/ml incubated for 1 hr measured after 7 days in presence of vancomycin by qRT-PCR analysis. Type of data set: functional. The settings on record: dose 2.0 µg/ml.
Data set [39] has as its system Enterococcus faecium. Nature of the data set: Inhibition of vancomycin-resistance in Enterococcus faecium ATCC 51559 assessed as reduction in vanZ expression at 2 ug/ml incubated for 1 hr measured after 7 days in presence of vancomycin by qRT-PCR analysis. Type of data set: functional. The settings on record: dose 2.0 µg/ml.

Each structure is given as a SMILES string. In brackets after ≈: the same amount, converted by molar mass. Activity calls are given as the source filed them. The rule behind the calls is not given here. Some results are limits rather than exact numbers.

On to `CN[C@H](CC(C)C)C(=O)N[C@H]1C(=O)N[C@@H](CC(N)=O)C(=O)N[C@H]2C(=O)N[C@H]3C(=O)N[C@H](C(=O)N[C@H](C(=O)O)c4cc(O)cc(O)c4-c4cc3ccc4O)[C@H](O)c3ccc(c(Cl)c3)Oc3cc2cc(c3O[C@@H]2O[C@H](CO)[C@@H](O)[C@H](O)[C@H]2O[C@H]2C[C@](C)(N)[C@H](O)[C@H](C)O2)Oc2ccc(cc2Cl)[C@H]1O` [VANCOMYCIN], for which the MIC99 was 8 µg/mL (≈ 5.52 µM) in data set [1], 4 µg/mL (≈ 2.76 µM) in data set [2], 2 µg/mL (≈ 1.38 µM) in data set [3] and above 128 µg/mL in data set [4]. In addition, the IC50 in data set [5] was above 1000 µM. For the same molecule, in data set [6], the “log(activity)” value is on record as 2. In addition, the outcome in data set [7] was Active. Also, the “fold change (FC)” value in data set [8] turned out to be 3.

With `CC(C)C(N)C(=O)NCC(=O)O[C@@H]1CC[C@@]2(C)[C@@H](C1)C[C@@H](OC(=O)CNC(=O)C(N)C(C)C)[C@@H]1[C@@H]2C[C@H](OC(=O)CNC(=O)C(N)C(C)C)[C@]2(C)[C@@H]([C@H](C)CCC(=O)NCc3cn(CCCn4cc(CNC(=O)CC[C@@H](C)[C@H]5CC[C@H]6[C@@H]7[C@H](OC(=O)CNC(=O)C(N)C(C)C)C[C@@H]8C[C@H](OC(=O)CNC(=O)C(N)C(C)C)CC[C@]8(C)[C@H]7C[C@H](OC(=O)CNC(=O)C(N)C(C)C)[C@]56C)nn4)nn3)CC[C@@H]12.Cl.Cl.Cl.Cl.Cl.Cl` (stereo not given in full), the outcome in data set [9], in [11], in data set [12], in [16], in data set [23] and in data set [24] was Active. The outcome in [25], in data set [26], in [27], in [28], in [29] and in [30] was Active. The result in [31], in [32], in [33], in data set [34], in [35] and in [36] was Active. The outcome in data set [37], in data set [38] and in data set [39] was Active. Besides, the MIC99 stood at 64 µg/mL in data set [1], 16 µg/mL in [2], 16 µg/mL in [3] and 4 µg/mL in data set [4]. Further, the IC50 in data set [5] came out at 414 µg/mL. The hemolysis at 50 ug/ml in data set [10] was found to be 5%. In addition, the Activity in data set [13] was 90%; in data set [14], 90%; in data set [15] it was 90%; in data set [17], “Tde”; in [18], “Dde”; in data set [21] it was “Tde”. In addition, the “log(activity)” value in data set [19] was 3; in [20], 5; in [22], 3; in data set [6], 1.
